From patent US11275071B2, “Sensor dyes for real-time sensing of metal ions in aqueous environments” (UWM Research Foundation, Inc., priority 2015, dated 2022)
Entries after “also recorded” stand apart in the source; their conditions may differ. Where two headings read alike, the source gives them in different places. Each block holds one compound with its values, some of them ahead of it.

Assays:
[1] = Response of QAR and PAR to metal ions at pH 7 (absorbance spectrum, colour); format: binding
Method: (§1) The response of QAR to different metal ions was measured to determine its selectivity and compared to another sensor (PAR), which has a similar structure. Samples were prepared with different metal standards at pH 7, and the absorbance spectrum of each sample was recorded (FIG. 6). Also, photographs of the samples are provided below to allow for a visual comparison (FIG. 7).
(§2) The spectra of QAR were compared to the spectrum of the free dyes, and the general response of QAR at pH 7 can be described as follows: […]

[2] = Response of QAR and PAR to metal ions at pH 7, overall comparison; format: binding
Method: as §1, §2

[3] = Protonation states of free QAR, pKA by absorption and ReactLab Equilibria (Example 29); format: physicochemical; details: free dye
Method: QAR has three protonation sites: The heterocyclic nitrogen in the quinoline moiety, and the para-hydroxyl group and the ortho-hydroxyl group in the resorcinol ring. The ortho-hydroxyl group is involved in binding with the metal.
The acid dissociation constants (pKA) and spectral profiles were determined for QAR. […] The data was analyzed using ReactLab Equilibria (JPlus Consulting Pty Ltd, Australia) to determine the resulting pKA values. QAR has three protonation sites, so four species were used for the analysis model. The pKA values were assigned using values from well-known molecules with a similar structure.
Error analysis was performed using the measurement uncertainties (pH meter and probe, temperature, etc.) and the conventional rules of error propagation. […] The total uncertainty was estimated from the error analysis (TABLE 5).

[4] = Formation and dissociation constants of QAR, titration with metal ion standard at pH 8.8; format: binding; details: for KF / KD: 1:2 complex; for KD: computed from formation constant; for log KF: M^2+ + 2HQAR^− → M(QAR)2^2− + 2H^+; for Kd: read-out: square root over (KD)
Method: The formation constants (KF) were determined for QAR and different metals. The relative binding affinities characterized the selectivity of the sensor, i.e. the sensor's preference for binding one metal over another. Also, the corresponding dissociation constants (KD) were computed from the formation constants. This metric yielded the lower performance limit of the sensor that is thermodynamically possible (for a given set of conditions), and it can provide the practical operating range of the sensor.
The absorbance spectra were recorded using a Perkin-Elmer Lambda 650 spectrophotometer while a QAR solution was titrated with a metal ion standard. Scout titrations were performed to obtain an estimate range for the KD. Then, the titration was performed with a sufficiently low initial dye concentration (approximately equal to the KD) for proper determination. Also, measurements were made using 10 cm longpath cuvettes. The increased pathlength compensated for the reduced dye concentration so measurements were made within the instrumental limitations (i.e. absorbance values greater than 0.05 absorbance units).
The dye solution was pH-buffered at such that only one protonated form of the free dye and complex is present. […] At pH 8.8, the following expression describes the metal-dye complex formation where HQAR^− predominates as the free dye and M(QAR)2^2 predominates as the metal complex, and minimal formation of metal hydroxides is expected. M^2++2HQAR^−→M(QAR)2^2−+2H^+
The data was analyzed in ReactLab Equilibria to determine the formation constant using the above model, and initial concentrations of HQAR and the respective metal. This software performs regression with the entire spectrum to calculate the formation constants specified in the model. Analysis was performed several times with different initial “guesses” for parameter values to ensure the algorithm yielded reproducible results.
The corresponding K values were calculated and are shown in the table below where the standard error from regression is given as the uncertainty values. The accuracy of the values is limited for cobalt and copper because the absorbance changes were too steep to properly capture the hyperbolic nature of the curve. And, the experimental conditions could not be adjusted to yield the same level of instrumental sensitivity and accuracy as the other metals. However, a relative comparison of the binding affinities is valid.

[5] = Decomposition of metal-QAR complexes under acidic conditions, overall; format: physicochemical
Method: (§3) The dissociation constant under acidic conditions and the pKA for the para-hydroxy group on the metal-QAR complexes was determined. A set of samples containing QAR and a single metal standard, were prepared in a pH buffer containing 2 mM Triton X-100 surfactant. […] The absorption spectrum of each sample was recorded with the Perkin-Elmer Lambda 650 spectrophotometer.
(§4) Analysis was performed in ReactLab Equilibria. The protonation of the para-hydroxy groups was modelled using the first reaction. Here, the pH micro-constants (stepwise protonation of each dye molecule in the complex) could not be resolved, so the two para-hydroxy groups in the complex were treated as both protonated or both deprotonated in the model. The decomposition of the complex under acidic conditions was modelled using the second reaction. M(QAR)2^2−+2H^+→M(QAR)2H2 M(QAR)2H2+2H^+→[…]+2H3QAR^+
Decomposition of the metal-QAR complexes occurs below pH 3. The dissociation constant is different for each metal. For example, copper has the highest resistance and zinc has the lowest resistance to decomplexation under acidic conditions. Also, this trend [Cu(II)>Co(II)>Ni(II)>Zn(II)] matches the trend in the binding affinities, and the two effects may be related to the specific interactions that occur in the binding of each metal. […]

[6] = Protonation states of metal-QAR complexes; format: physicochemical; details: M(QAR)2H2 decomposition under acidic conditions, midpoint of species distribution curve
Method: as §3, §4
The total uncertainty was estimated from the measurements involved in the experiment using rules of conventional error propagation (TABLE 7).

[7] = accuracy limited, with Co(II) ion
[8] = accuracy limited, with Cu(II) ion

Compound: Oc1ccc(N=Nc2ccccn2)c(O)c1 [PAR, 4-(2-pyridylazo)resorcinol, reference compound]
response to Ca(II) (spectrum compared to free dye, colour of complex) [1]: did not undergo a spectral change | response to Cd(II) (spectrum compared to free dye, colour of complex) [1]: orange complexes | response to Co(II) (spectrum compared to free dye, colour of complex) [1]: magenta complex | response to Cu(II) (spectrum compared to free dye, colour of complex) [1]: magenta complex | response to Fe(III) (spectrum compared to free dye, colour of complex) [1]: magenta complex; also recorded: Aggregation occurs | response to Hg(II) (spectrum compared to free dye, colour of complex) [1]: brown, globular suspension | response to K(I) (spectrum compared to free dye, colour of complex) [1]: did not undergo a spectral change | response to Mg(II) (spectrum compared to free dye, colour of complex) [1]: did not undergo a spectral change | response to Na(I) (spectrum compared to free dye, colour of complex) [1]: did not undergo a spectral change | response to Ni(II) (spectrum compared to free dye, colour of complex) [1]: orange complexes | response to Pb(II) (spectrum compared to free dye, colour of complex) [1]: magenta complex | response to Zn(II) (spectrum compared to free dye, colour of complex) [1]: orange complexes

binding selectivity compared with PAR [2]: higher binding selectivity | pKa ([3]; site Quinoline N): 2.42 | pKa ([3]; site o-OH): 13 | pKA ([3]; site p-OH): 6.539 | pKa ([3]; site p-OH): 6.5 | KD [4, 7]: (5.30 ± 0.10) × 10^−14 M^2 | KD [4, 8]: (5.40 ± 1.15) × 10^−17 M^2 | KD ([4]; with Hg(II) ion): (1.03 ± 0.04) × 10^−13 M^2 | KD ([4]; with Ni(II) ion): (2.66 ± 0.06) × 10^−13 M^2 | KD ([4]; with Zn(II) ion): (3.24 ± 0.03) × 10^−13 M^2 | log KF [4, 8]: 16.268 M^−2 | log KF ([4]; with Hg(II) ion): 12.986 M^−2 | log KF ([4]; with Ni(II) ion): 12.575 M^−2 | log KF ([4]; with Zn(II) ion): 12.490 M^−2 | Kd [4, 7]: 0.23 µM | Kd [4, 8]: 0.00735 µM | Kd ([4]; with Hg(II) ion): 0.321 µM | Kd ([4]; with Ni(II) ion): 0.516 µM | Kd ([4]; with Zn(II) ion): 0.569 µM | trend of resistance to decomplexation under acidic conditions [5]: Cu(II)>Co(II)>Ni(II)>Zn(II) | Acidic Dissociation ([6]; Co(II)-QAR complex): 1.593 | Acidic Dissociation ([6]; Cu(II)-QAR complex): 0.635 | Acidic Dissociation ([6]; Ni(II)-QAR complex): 2.455 | Acidic Dissociation ([6]; Zn(II)-QAR complex): 2.558
Compound: Oc1ccc(N=Nc2cccc3cccnc23)c(O)c1 [QAR, 4-(quinolin-8-yldiazenyl)benzene-1,3-diol]
spectral sensitivity compared with PAR [2]: higher spectral sensitivity | KF [4, 7]: (1.86 ± 0.03) × 10^13 M^−2 | KF [4, 8]: (1.85 ± 0.40) × 10^16 M^−2 | KF ([4]; with Hg(II) ion): (9.68 ± 0.45) × 10^12 M^−2 | KF ([4]; with Ni(II) ion): (3.76 ± 0.09) × 10^12 M^−2 | KF ([4]; with Zn(II) ion): (3.09 ± 0.05) × 10^12 M^−2 | response to Al(III) (spectrum compared to free dye, colour of complex) [1]: Weakly Sensitive | response to Ca(II) (spectrum compared to free dye, colour of complex) [1]: Insensitive; also recorded: did not undergo a spectral change | response to Cd(II) (spectrum compared to free dye, colour of complex) [1]: Weakly Sensitive | response to Co(II) (spectrum compared to free dye, colour of complex) [1]: Strongly Sensitive; also recorded: magenta complex | response to Cr(III) (spectrum compared to free dye, colour of complex) [1]: Insensitive | response to Cu(II) (spectrum compared to free dye, colour of complex) [1]: Strongly Sensitive; also recorded: orange complex | response to Fe(III) (spectrum compared to free dye, colour of complex) [1]: Severe aggregation; also recorded: does not appreciably complex; also recorded: Aggregation occurs | response to Hg(II) (spectrum compared to free dye, colour of complex) [1]: transparent complex | response to K(I) (spectrum compared to free dye, colour of complex) [1]: Insensitive; also recorded: did not undergo a spectral change | response to Mg(II) (spectrum compared to free dye, colour of complex) [1]: Insensitive; also recorded: did not undergo a spectral change | response to Mn(II) (spectrum compared to free dye, colour of complex) [1]: Weakly Sensitive; also recorded: does not appreciably complex | response to Na(I) (spectrum compared to free dye, colour of complex) [1]: Insensitive; also recorded: did not undergo a spectral change | response to Ni(II) (spectrum compared to free dye, colour of complex) [1]: Strongly Sensitive; also recorded: orange complex | response to Pb(II) (spectrum compared to free dye, colour of complex) [1]: Insensitive; also recorded: does not appreciably complex | response to Sn(II) (spectrum compared to free dye, colour of complex) [1]: Insensitive; also recorded: does not appreciably complex | response to Zn(II) (spectrum compared to free dye, colour of complex) [1]: Strongly Sensitive; also recorded: orange complex
